Where a name gives a salt, the structure may show the parent alone. Read-outs that look alike come from different tables or passages of the source. Each block holds one molecule with its values, some of them ahead of it.
Key:
[1] = Olovson et al. 1986, Kumar et al. 2013; cited from earlier work
[2] = Stability of Form A and its freebase, one month storage; format: physicochemical; settings: for % Decomposition: 1 month
Procedure: The stability of Form A and its freebase was tested at ambient conditions (25° C. and 40% relative humidity, “RH”), and at elevated temperature and humidity (40° C. and 75% RH) over the duration of one month.

[3] = Solubility of compound G (amorphous) and its monomaleate salt (crystalline) in water, buffers and solvents; format: physicochemical
[4] = pKa of the monomaleate salt; format: physicochemical

SMILES: C=CCc1ccccc1OCC(O)CNC(C)C (stereo not drawn) [alprenolol]
solubility of the maleate salt compared to other counterions, such as fumarate [1]: decreased solubility

% Decomposition ([2]; 25° C./40% RH, lot 1): 1.9% | % Decomposition ([2]; 25° C./40% RH, lot 2): 1.6% | % Decomposition ([2]; 25° C./40% RH, lot 3): 1.4% | % Purity at 1 Month ([2]; 25° C./40% RH, lot 1 (purity at t = 0 95.1)): 93.2% | % Purity at 1 Month ([2]; 25° C./40% RH, lot 2 (purity at t = 0 85.6)): 84.0% | % Purity at 1 Month ([2]; 25° C./40% RH, lot 3 (purity at t = 0 93.7)): 92.3% | stability at elevated temperature and humidity (in words) ([2]; 40° C. and 75% RH, one month): rapid decomposition | % Decomposition ([2]; 40° C./75% RH, lot 1): 67.5% | % Decomposition ([2]; 40° C./75% RH, lot 2): 28.8% | % Decomposition ([2]; 40° C./75% RH, lot 3): 21.1% | % Purity at 1 Month ([2]; 40° C./75% RH, lot 1 (purity at t = 0 95.1)): 92.3% | % Purity at 1 Month ([2]; 40° C./75% RH, lot 2 (purity at t = 0 85.6)): 92.3% | % Purity at 1 Month ([2]; 40° C./75% RH, lot 3 (purity at t = 0 93.7)): 72.5% | solubility ([3]; 25 mM Na citrate buffer, pH 4.9, aqueous buffer, 25 mM Na Citrate, pH 4.9, amorphous, read-out: Solubility): 46000 µg/mL | solubility ([3]; 25 mM Na citrate buffer, pH 5.1, aqueous buffer, 25 mM Na Citrate, pH 5.1, amorphous, read-out: Solubility): 32000 µg/mL | solubility ([3]; 25 mM Na citrate buffer, pH 5.2, aqueous buffer, 25 mM Na Citrate, pH 5.2, amorphous, read-out: Solubility): 24800 µg/mL | solubility ([3]; 25 mM Na citrate buffer, pH 5.4, aqueous buffer, 25 mM Na Citrate, pH 5.4, amorphous, read-out: Solubility): 19500 µg/mL | solubility ([3]; 25 mM Na citrate buffer, pH 5.8, aqueous buffer, 25 mM Na Citrate, pH 5.8, amorphous, read-out: Solubility): 11200 µg/mL | solubility ([3]; 25 mM Na citrate buffer, pH 6.3, aqueous buffer, 25 mM Na Citrate, pH 6.3, amorphous, read-out: Solubility): 9800 µg/mL | solubility ([3]; 25 mM Na citrate buffer, pH 6.8, aqueous buffer, 25 mM Na Citrate, pH 6.8, amorphous, read-out: Solubility): 8800 µg/mL | solubility ([3]; 0.9% saline, pH 7.6, saline or isotonic, 0.9% saline, pH 7.6, amorphous, read-out: Solubility): 9400 µg/mL | solubility ([3]; 10% EtOH, aqueous with cosolvent or surfactant or cyclodextrin, EtOH, 10%, amorphous, read-out: Solubility): 13700 µg/mL | solubility ([3]; 10% NMP, aqueous with cosolvent or surfactant or cyclodextrin, NMP, 10%, amorphous, read-out: Solubility): 28800 µg/mL | solubility ([3]; 10% PEG 400, aqueous with cosolvent or surfactant or cyclodextrin, PEG 400, 10%, amorphous, read-out: Solubility): 11800 µg/mL | solubility ([3]; 10% PG, aqueous with cosolvent or surfactant or cyclodextrin, PG, 10%, amorphous, read-out: Solubility): 12100 µg/mL | solubility ([3]; 10% glycerol, aqueous with cosolvent or surfactant or cyclodextrin, glycerol, 10%, amorphous, read-out: Solubility): 8600 µg/mL | solubility ([3]; 33% EtOH, aqueous with cosolvent or surfactant or cyclodextrin, EtOH, 33%, amorphous, read-out: Solubility): 20000 µg/mL | solubility ([3]; 33% NMP, aqueous with cosolvent or surfactant or cyclodextrin, NMP, 33%, amorphous, read-out: Solubility): > 100000 µg/mL | solubility ([3]; 33% PEG 400, aqueous with cosolvent or surfactant or cyclodextrin, PEG 400, 33%, amorphous, read-out: Solubility): 17400 µg/mL | solubility ([3]; 33% PG, aqueous with cosolvent or surfactant or cyclodextrin, PG, 33%, amorphous, read-out: Solubility): 20500 µg/mL | solubility ([3]; 33% glycerol, aqueous with cosolvent or surfactant or cyclodextrin, glycerol, 33%, amorphous, read-out: Solubility): 5800 µg/mL | solubility ([3]; 67% EtOH, aqueous with cosolvent or surfactant or cyclodextrin, EtOH, 67%, amorphous, read-out: Solubility): > 100000 µg/mL | solubility ([3]; 67% NMP, aqueous with cosolvent or surfactant or cyclodextrin, NMP, 67%, amorphous, read-out: Solubility): > 100000 µg/mL | solubility ([3]; 67% PEG 400, aqueous with cosolvent or surfactant or cyclodextrin, PEG 400, 67%, amorphous, read-out: Solubility): > 50000 µg/mL | solubility ([3]; 67% PG, aqueous with cosolvent or surfactant or cyclodextrin, PG, 67%, amorphous, read-out: Solubility): > 100000 µg/mL | solubility ([3]; 67% glycerol, aqueous with cosolvent or surfactant or cyclodextrin, glycerol, 67%, amorphous, read-out: Solubility): 5400 µg/mL | solubility ([3]; 100% EtOH, organic solvent or mixture, EtOH, 100%, amorphous, read-out: Solubility): > 100000 µg/mL | solubility ([3]; 100% NMP, organic solvent or mixture, NMP, 100%, amorphous, read-out: Solubility): > 100000 µg/mL | solubility ([3]; 100% PEG 400, organic solvent or mixture, PEG 400, 100%, amorphous, read-out: Solubility): > 50000 µg/mL | solubility ([3]; 100% PG, organic solvent or mixture, PG, 100%, amorphous, read-out: Solubility): > 100000 µg/mL | solubility ([3]; PBS, pH 7.2, aqueous buffer, PBS, pH 7.2, amorphous, read-out: Solubility): 7600 µg/mL | solubility ([3]; glycerol, 100%, amorphous): not soluble | solubility ([3]; water, pH 7.4, water, Water, pH 7.4, amorphous, read-out: Solubility): 8900 µg/mL | solubility ([3]; water, read-out: solubility in water): 8900 µg/mL
SMILES: COc1ccc([C@@H](O)[C@H](NC(=O)[C@H](C)NC(=O)CN2CCOCC2)C(=O)N[C@@H](CC2=CCCC2)C(=O)[C@@]2(C)CO2)cc1 [compound G, (2S,3R)—N-[(2S)-3-(cyclopent-1-en-1-yl)-1-[(2R)-2-methyloxiran-2-yl]-1-oxopropan-2-yl]-3-hydroxy-3-(4-methoxyphenyl)-2-[(2S)-2-[2-(morpholin-4-yl)acetamido]propanamido]propanamide]

pKa [4]: 5 | solubility ([3]; 2-methyltetrahydrofuran, organic solvent or mixture, 2-Methyltetrahydrofuran, crystalline, read-out: Solubility): 1760 µg/mL | solubility ([3]; acetone, organic solvent or mixture, Acetone, crystalline, read-out: Solubility): 3190 µg/mL | solubility ([3]; acetonitrile, organic solvent or mixture, Acetonitrile (ACN), crystalline, read-out: Solubility): 1300 µg/mL | solubility ([3]; aqueous medium, aqueous, read-out: aqueous solubility): > 100000 µg/mL | solubility ([3]; dichloromethane, organic solvent or mixture, Dichloromethane (DCM), crystalline, read-out: Solubility): 210 µg/mL | solubility ([3]; ethanol, organic solvent or mixture, Ethanol (EtOH), crystalline, read-out: Solubility): 6970 µg/mL | solubility ([3]; ethyl acetate, organic solvent or mixture, Ethyl acetate (EA), crystalline, read-out: Solubility): 470 µg/mL | solubility ([3]; isopropanol, organic solvent or mixture, Isopropanol (IPA), crystalline, read-out: Solubility): 3280 µg/mL | solubility ([3]; isopropyl acetate, organic solvent or mixture, Isopropyl acetate (IPAc), crystalline, read-out: Solubility): 130 µg/mL | solubility ([3]; methanol, organic solvent or mixture, Methanol (MeOH), crystalline, read-out: Solubility): 42100 µg/mL | solubility ([3]; methyl tert-butyl ether, organic solvent or mixture, Methyl tert-butyl ether (MTBE), crystalline, read-out: Solubility): 170 µg/mL | solubility ([3]; tetrahydrofuran, organic solvent or mixture, Tetrahydrofuran (THF), crystalline, read-out: Solubility): 1960 µg/mL | solubility ([3]; toluene, organic solvent or mixture, Toluene, crystalline, read-out: Solubility): 20 µg/mL | solubility ([3]; water, ambient temperature (e.g., 20° C. to 25° C.), read-out: solubility in water): > 100000 µg/mL
SMILES: COc1ccc([C@@H](O)[C@H](NC(=O)[C@H](C)NC(=O)CN2CCOCC2)C(=O)N[C@@H](CC2=CCCC2)C(=O)[C@@]2(C)CO2)cc1 [monomaleate salt of compound G]

Reference: patent US10836756B2, “Crystalline salts of peptide epoxyketone immunoproteasome inhibitor” (KEZAR LIFE SCIENCES, priority 2016, dated 2020)
